In US20060134212A1, “Lercanidipine immediate release compositions” (Forest Laboratories, Inc., priority 2004, published 2006):

Tests used:
[1] = species not given; cited from earlier work
[2] = cited from earlier work
Caco-2 cell = Caco-2 cell apparatus; cited from earlier work
Caco-2 cell monolayers = experiment: Caco-2 cell analysis: lercanidipine permeation with different concentrations of Polysorbate 80 (Tween 80); assay type: in vitro ADME
Source text: The objective of this study was to investigate the effects of surfactant on the permeability characteristics of lercanidipine across Caco-2 cell monolayers. Caco-2 cell monolayers have been used as a model of intestinal mucosa for predicting oral drug absorption (P. Artursson. Epithelial transport of drugs in cell culture. I: A model for studying the passive diffusion of drugs over intestinal absorptive (Caco-2) cells. JPharm (1990)).
Transport experiments for the permeation characteristics of lercanidipine in the presence of different concentrations of Polysorbate 80 (Tween 80) were conducted as follows. […] The samples were collected and analyzed for lercanidipine.
The permeation characteristics lercanidipine across Caco-2 cell monolayers in the presence of different concentrations of Tween 80 were analyzed using four dosing solutions. […]
Papp values will be calculated using the equation: Papp=ΔQ/Δt/(A*C0) where ΔQ/Δt is the linear appearance rate of mass in the receiver solution, A is the filter/cell surface area (1 cm^2 for 12-well system), and C0 is the initial concentration of the test compounds.

[3] = cited from earlier work; remark: listed apart in the source

Row | SMILES | plasma concentration (AUCo-t), Form II compared to Form I [1] | time to maximum concentration (Tmax), one form compared to the other [1] | time of peak plasma level following dosage ([2]; oral administration) [h] | increase of amount of lercanidipine absorbed with food ([2]; simultaneous intake of food (especially high fat) vs administration without food) | Papp (Caco-2 cell) | increase in Caco-2 permeability upon the addition of surfactant (Caco-2 cell monolayers; 50 μg/ml Lerc in HBSS, pH 6.8, Tween 80 added vs none) | change of Caco-2 permeability at higher surfactant (Caco-2 cell monolayers; surfactant in transport buffer increased ten fold from 0.02 to 0.2) | solubility ([3]; at pH 5 and above) | aqueous solubility ([3]; water)
1 | COC(=O)C1=C(C)NC(C)=C(C(=O)OC(C)(C)CN(C)CCC(c2ccccc2)c2ccccc2)C1c1cccc([N+](=O)[O-])c1.Cl (stereo not shown) [Form II] | higher plasma concentration | delayed time of maximum concentration | – | – | – | – | – | – | –
2 | COC(=O)C1=C(C)NC(C)=C(C(=O)OC(C)(C)CN(C)CCC(c2ccccc2)c2ccccc2)C1c1cccc([N+](=O)[O-])c1.Cl (stereo not shown) [Form I] | – | shorter time to maximum concentration | – | – | – | – | – | – | –
3 | COC(=O)C1=C(C)NC(C)=C(C(=O)OC(C)(C)CN(C)CCC(c2ccccc2)c2ccccc2)C1c1cccc([N+](=O)[O-])c1 (stereo not shown) [lercanidipine, methyl 1,1,N-trimethyl-N-(3,3-diphenylpropyl)-2-aminoethyl 1,4-dihydro-2,6-dimethyl-4-(3-nitrophenyl)pyridine-3,5-dicarboxylate] | – | – | 1 to 3 | between three and four times | about 0.5×10^−7 cm/s | three fold increase in permeability | permeability of lercanidipine decreases | less than 20 μg/ml | about 5 μg/ml
